# Literature values, collected in patent publication US20250134097A1, “PERSISTENT SANITIZER” (priority 2020, published 2025).
# Tests used:
# microbes = details: benzalkonium chloride at 0.1-0.2%
# Adenovirus = details: in vitro; concentration-dependent; includes non-enveloped virus
substance,measurement,setting,value
Benzalkonium chloride,antimicrobial activity,microbes,Broad antimicrobial activity
same,antiviral activity,Adenovirus,some antiviral activity including non-enveloped activity
